Experimental data: paper PMC11858205, “Radiolabeling and Preliminary In Vivo Evaluation of the Candidate CCR2 Targeting PET Radioligand [^11C]AZD2423” (Pharmaceuticals, 2025)

Key:
CCR2 [1] = tested on: CCR2; parameters: method as in PMID 23523116, PMID 29913894; conditions: no method in this paper; read-out: CCR2 IC50 (affinity); cited from earlier work
[2] = parameters: method as in PMID 23523116, PMID 29913894; conditions: no method in this paper; cited from earlier work
[3] = parameters: method as in PMID 26116114; conditions: brain tissue in vitro; cited from earlier work
[4] = Stability of the radioligand in formulation; format: physicochemical; conditions: 9% ethanol in PBS, pH 7.4
Experimental: Carbon-11 labeled radioligands for in vivo PET imaging studies are typically produced in giga-becquerel quantities. As our goal was to develop a synthesis methodology suitable for routine radioligand production, the [^11C]AZD2423 synthesis process was fully automated to improve its reliability and reproducibility. The complete process was performed using a previously described [^11C]CO prototype synthesis apparatus (GEMS, Uppsala, Sweden), which included the initial formation of the crude [^11C]AZD2423 product, followed by its isolation by semipreparative high-performance liquid chromatography (HPLC), solid-phase extraction (SPE), and sterile filtration to yield the formulated product. Using these conditions, [^11C]AZD2423 was prepared with radioactivities exceeding 1 GBq and the radiochemical purity (RCP) was greater than 99%. The synthesis process took approximately 40 min, and the molar activity (Am) at the time of injection ranged from 15 to 20 GBq/μmol (405 to 540 Ci/mmol). […] The average radiochemical yield for the synthesis of [^11C]AZD2423 was 7.4 ± 0.6% (n = 4, relative to the [^11C]CO2 at the start of synthesis). The identity of the labeled compound was verified by co-injecting it with a reference standard.

CCR2 [5] = target: T1, CCR2 (Macaca mulatta, UniProt O18793); assay: PET imaging in non-human primates at baseline and after pretreatment with AZD2423; format: in vivo, rhesus monkeys; conditions: for SUVpeak brain: iv; for Average VT parotid gland / Average VT thyroid gland: two-tissue compartment analysis
T1 construct: from tissue; host or cells: living rhesus monkeys: brain, thyroid gland, parotid gland, submandibular gland
T1 sequence (O18793 1-360): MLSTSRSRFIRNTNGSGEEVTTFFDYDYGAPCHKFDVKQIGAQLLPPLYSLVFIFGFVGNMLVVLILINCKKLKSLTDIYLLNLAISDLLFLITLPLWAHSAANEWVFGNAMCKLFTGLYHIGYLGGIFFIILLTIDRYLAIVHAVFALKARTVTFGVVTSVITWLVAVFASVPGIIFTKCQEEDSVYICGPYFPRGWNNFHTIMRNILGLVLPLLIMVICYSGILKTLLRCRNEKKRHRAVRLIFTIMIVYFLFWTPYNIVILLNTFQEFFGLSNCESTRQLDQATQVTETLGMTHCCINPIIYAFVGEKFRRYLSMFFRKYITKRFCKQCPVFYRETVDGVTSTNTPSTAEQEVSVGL
Experimental: To evaluate the brain exposure and regional distribution of [^11C]AZD2423 in non-human primate (NHP) brains, PET imaging studies were carried out. Thus, two 123 min dynamic brain PET measurements were performed at baseline and after pretreatment with unlabeled AZD2423 (3 mg/kg), respectively.
PET experiments were conducted on two anesthetized healthy rhesus monkeys weighing 5.3 and 4.7 kg. The study received approval from the Stockholm Animal Research Ethical Committee (Dnr. N452/11) and is comprehensively described in Dahl et al.. Anesthesia was induced via an intramuscular injection of ketamine hydrochloride (approximately 10 mg/kg, Ketalar, Pfizer AB, Stockholm, Sweden) and maintained with a mixture of sevoflurane (2–8%, Abbott Scandinavia AB, Solna, Sweden), oxygen (around 40%), and medical air following endotracheal intubation. The anesthesia level was continuously monitored during the experiment. The head was stabilized using a fixation device, and the body temperature was regulated with a Bair Hugger model 505 (Arizant Healthcare, St. Paul, MN, USA), with continuous monitoring via an esophageal thermometer. ECG, heart rate, blood pressure, respiratory rate, and oxygen saturation were all continuously monitored throughout the experiments.
Two PET measurements were performed on the same experimental day in each of the two monkeys. Baseline PET measurements were conducted using [^11C]AZD2423 with doses of 164 MBq and 157 MBq. A pretreatment PET measurement was also performed, during which an infusion of unlabeled AZD2423 (3.0 mg/kg) occurred over 10 min, starting 30 min before the injection of [^11C]AZD2423 (90 MBq and 158 MBq). In each PET experiment, the radioligand was administered as an intravenous bolus injection over 5 s, coinciding with the start of PET data acquisition. Radioactivity in the brain was continuously measured for 123 min using the high-resolution research tomograph (HRRT; Siemens Molecular Imaging, Knoxville, TN, USA), following a preprogrammed sequence of 34 frames. Arterial blood samples were collected at specified time points (4, 15, 30, 45, and 90 min) and analyzed for radioactivity in blood and plasma, as well as for the presence of the remaining parent compound, [^11C]AZD2423.
The Regions of Interest (ROIs) were delineated manually on MRI images of each NHP for the whole brain, thyroid gland, parotid gland, and submandibular gland. The summed PET images of the entire duration were co-registered with the MRI image of the individual NHP. After applying the co-registration parameters to the dynamic PET data, time–activity curves were generated for all ROIs for each PET measurement. The average SUV was calculated for each ROI. Target occupancy was estimated using the volume of distribution (VT) calculated by a two-tissue compartment model (2TC) with metabolite-corrected plasma radioactivity.

[6] = Radiometabolite analysis in arterial plasma; format: in vivo, rhesus monkeys
Experimental: To measure parent radioligand and radiometabolites in plasma, discrete arterial blood samples were drawn at five time points after the injection of [^11C]AZD2423. The radioligand was metabolized rather slowly (Figure 5). At 10 min after injection, approximately 80% of the radioactivity in plasma represented parent radioligand, decreasing to approximately 60% at 90 min. Most radiometabolites detected in plasma eluted with a retention time (tR) of 2.1–2.7 min and were thus less lipophilic than [^11C]AZD2423 (tR = 3.0 min). However, one metabolite with a longer retention time (tR = 3.5 min) was formed (see Supporting Information). These metabolites were not identified and further work would be required to fully characterize these unknown radiometabolites. […]
Two PET measurements were performed on the same experimental day in each of the two monkeys. […] Radioactivity in the brain was continuously measured for 123 min using the high-resolution research tomograph (HRRT; Siemens Molecular Imaging, Knoxville, TN, USA), following a preprogrammed sequence of 34 frames. Arterial blood samples were collected at specified time points (4, 15, 30, 45, and 90 min) and analyzed for radioactivity in blood and plasma, as well as for the presence of the remaining parent compound, [^11C]AZD2423.
Method description and representative radioactivity HPLC trace for radiometabolite analysis. […]

CCR1 = tested on: CCR1; parameters: method as in PMID 23523116, PMID 29913894; conditions: no method in this paper; cited from earlier work
CCR5 = tested on: CCR5; parameters: method as in PMID 23523116, PMID 29913894; conditions: no method in this paper; cited from earlier work
Other GPCR = tested on: Other GPCR; parameters: method as in PMID 23523116, PMID 29913894; conditions: no method in this paper; cited from earlier work
CCR2 [7] = tested on: CCR2; parameters: method as in PMID 33205603; conditions: cited from earlier work
[8] = pretreatment AZD2423 3 mg/kg relative to baseline
[9] = pretreatment AZD2423 3.0 mg/kg relative to baseline
[10] = pretreatment AZD2423 3 mg/kg, n = 2

CC(C)(C)N1CCNC(C(=O)N2CCN(C(=O)Nc3ccc(Cl)c(F)c3)CC2)C1 (stereo not drawn) [AZD2423]
IC50 (CCR2 [1]): 2.6 nM
LogD [2]: 1.85
Fu (brain) / brain slice distribution [3]: 0.045

CC(C)(C)N1CCNC(C(=O)N2CCN([11C](=O)Nc3ccc(Cl)c(F)c3)CC2)C1 (stereo not drawn) [[^11C]AZD2423]
stability in formulation [4]: up to 60 min
SUVpeak brain (CCR2 [5]; NHP, after pretreatment with unlabeled AZD2423 3 mg/kg, n = 2): 0.4
SUVpeak brain (CCR2 [5]; NHP, baseline, n = 2): 0.4
SUVpeak parotid gland (CCR2 [5]; NHP, baseline, n = 2): 3.4
SUVpeak submandibular gland (CCR2 [5]; NHP, baseline, n = 2): 4.4
SUVpeak thyroid gland (CCR2 [5]; NHP, baseline, n = 2): 3.3
Average VT parotid gland (CCR2 [5]; baseline, n = 2): 111.1
Average VT thyroid gland (CCR2 [5]; baseline, n = 2): 53.1
Percentage decrease of VT parotid gland (CCR2 [5]; [8]): 62.6%
Percentage decrease of VT thyroid gland (CCR2 [5]; [8]): 63.4%
Percentage reduction of binding in the parotid gland (AUC ratio) (CCR2 [5]; [9]): 51.2%
Percentage reduction of binding in the submandibular gland (AUC ratio) (CCR2 [5]; [9]): 49%
Average VT parotid gland (CCR2 [5]; [10]): 41.6
Average VT thyroid gland (CCR2 [5]; [10]): 19.4
Parent radioligand, share of radioactivity in plasma ([6]; 10 min after iv injection): approximately 80%
Parent radioligand, share of radioactivity in plasma ([6]; 90 min after iv injection): approximately 60%
IC50 (CCR2 [1]): 2.6 nM
IC50 (CCR1): > 10 µM
IC50 (CCR5): > 510 nM
Selectivity over other GPCR (Other GPCR): > 500 fold
LogD [2]: 1.85
pKa [2]: 7.9
Fu (brain) / brain slice distribution [3]: 0.045

CN(CCc1ccc(NC(=O)C2=Cc3cc(-c4ccc(OCCCCC[18F])cc4)ccc3CCC2)cc1)C1CCOCC1 [[^18F]6b]
in vitro affinity to CCR2 (CCR2 [7]): 14 nM
